Legend:
[1] = test system: AsPC-1 cells; test: 3H-methyl thymidine incorporation (cell proliferation assay); assay type: cell-based, human
Method: (§1) Cell culture. The poorly differentiated human pancreatic cancer line AsPC-1 was purchased from the American Type Culture Collection (ATCC, Manassas, Va., USA). Cells were cultured in MEM medium supplemented with penicillin G (100 U/mL), streptomycin (100 U/mL) and 10% FBS at 37° C. in humidified air with 5% CO2. Cells were harvested by incubation in trypsin-EDTA solution for 10–15 minutes. Cells were then centrifuged at 300×g for 5 minutes and cell pellets were suspended in fresh culture medium prior to seeding into culture flasks or plates.
(§2) Cell proliferation assay. Cell growth was analyzed by ^3H-methyl thymidine incorporation and cell counting. Following treatment of pancreatic cancer cells with a series of concentrations of frondoside A from 1 μg/mL to 16 μg/mL, cellular DNA synthesis was assayed by adding ^3H-methyl thymidine at 0.5 μLCi/well. After 2 hours incubation, the cells were washed twice with PBS, precipitated with 10% TCA for two hours, and solubilized from each well with 0.5 ml of 0.4 N NaOH. Incorporation of ^3H-methyl thymidine into DNA was measured by adding scintillation liquid and counting in a scintillation counter (LKB BackBeta, Wallac, Turku, Finland). For cell counting, cells were seeded in 12 wells plates and cultured with serum-free medium for 24 hours prior to frondoside A treatment and then switched to serum-free medium with or without 4 μg/mL frondoside A for the respective treatment time points (24, 48 and 72 hours). The cells were removed from the plate by trypsinization to produce a single cell suspension for cell counting. The cells were counted using Z1-Coulter Counter (Luton, UK).

[2] = test system: Bax; test: Western blotting, Bax in AsPC-1 cells; assay type: cell-based, human; settings: 4 μg/mL (FIG. 4)
Method: (§3) Western blotting. Cells were seeded into flasks and cultured to 50% to 60% confluence for 24 hours. Cells were then placed in serum-free medium with or without 4 μg/mL frondoside A for periods of 0, 24, 48 and 72 hours respectively. Proteins were extracted from attached and floating cells in lysis buffer containing 4% SDS. Protein concentrations were determined using the bicinchoninic acid assay with BSA as standard. Western blotting was carried out. In brief, equal amounts of protein in the cell lysates were separated on 15% SDS-PAGE and the proteins were transferred onto nitrocellulose membranes. After blocking non-specific sites with dried milk, membranes were incubated with the appropriate dilution of primary antibody. Membranes were then incubated with a horseradish peroxidase conjugated secondary antibody. Proteins were detected using an enhanced chemiluminescence detection system.

[3] = test system: AsPC-1 cells; test: Morphological studies (apoptosis); assay type: cell-based, human; settings: 4 μg/mL, within 24 hours
Method: Morphological studies. The photomicrographs of cell morphological changes were taken with a Kodak DC 120 digital zoom camera under an inverted microscope (400×) following treatment with or without 4 μg/mL frondoside A for different time periods from 24 to 72 hours.

[4] = test system: AsPC-1 cells; test: Cell proliferation by cell counting; assay type: cell-based, human; settings: 4 μg/mL
Method: as §1
as §2, with “For cell counting, cells were seeded in 12 wells plates and cultured with serum-free medium for 24 hours prior to frondoside A treatment and then switched to serum-free medium with or without 4 μg/mL frondoside A for the respective treatment time points (24, 48 and 72 hours). The cells were removed from the plate by trypsinization to produce a single cell suspension for cell counting.” left out

[5] = test system: Bcl-2; test: Western blotting, Bcl-2 in AsPC-1 cells; assay type: cell-based, human; settings: 4 μg/mL, time-dependent (FIG. 4)
Method: as §3

[6] = test system: AsPC-1 human pancreatic cancer xenografts; test: AsPC-1 xenografts in athymic mice; assay type: in vivo; settings: 10 μg/kg/day intraperitoneal, 4 weeks
Method: Animal Study. Athymic mice (BALB/c nu/nu, 5-week old females) were purchased from Charles River Laboratories (Wilmington, Mass.). Mice were acclimatized to the animal facility for one week prior to receiving xenografts. Xenografts of three million AsPC-1 cells were injected into the flanks of mice. Once visible tumors were evidenced 4–5 days after injection, the animals were divided equally into two groups (6 animals/group) and treated with frondoside A (10 μg/kg/day) or control vehicle (100 μL phosphate-buffered saline, PBS) by intraperitoneal injection. Animal weight and tumor size were recorded every three days. The formula used for tumor volume was (length)H(width)H(length+width/2)H0.526=volume (Naito et al., Int. J. Cancer 58:730 [1994]). After 4-weeks of treatment the animals were euthanized and the tumors were carefully dissected and tumor weights measured.

[7] = test system: cancer cells; test: Anti-cancer / apoptotic promoting activity, method not described; settings: no test described for Frondoside B

SMILES: COC1C(O)C(CO)OC(OC2C(O)COC(OC3C(C)OC(OC4C(OC5CCC6(C)C7CCC89C(=O)OC(C)(CCCC(C)C)C8C(OC(C)=O)CC9(C)C7=CCC6C5(C)C)OCC(OS(=O)(=O)[O-])C4O)C(OC4OCC(O)C(O)C4O)C3O)C2O)C1O.[Na+] [Frondoside A, 3-O-methyl-β-D-glucopyranosyl-(1→3)-β-D-xylopyranosyl-(1→4)-[β-D-xylopyranosyl-(1→2)]-β-D-quinovopyranosyl-(1→2)-4-O-sodium sulfate-β-D-xylopyranosyl-3-O-holost-7(8)-en-3β-ol-16β-O-acetate]
- reduction of incorporation of 3H-methyl thymidine into DNA ([1]; 4 μg/mL, within 24 hours): approximately 50%
- inhibition of thymidine incorporation ([1]; AsPC-1 cells, 1 μg/mL to 16 μg/mL, concentration-dependent (FIG. 1)): marked inhibition of thymidine incorporation
- concentrations causing cytotoxicity (cell necrosis) ([1]; immediate necrosis of cells): higher than 16 μg/mL
- concentrations of the pro-apoptotic protein Bax [2]: increased
- morphological changes [3]: marked morphological changes characteristic of apoptosis
- cell number compared to control ([4]; 48 and 72 hours): marked and progressive decrease in cell number
- cell number compared to control ([4]; first 24 hours): no obviously effect
- expression of Bcl-2 [5]: decreased expression
- body weights of control and treated animals ([6]; athymic mice): no significant difference
- toxicity through the treatment period ([6]; athymic mice): No toxicity was seen
- growth of subcutaneously transplanted AsPC-1 cells (tumor volume and tumor weight) ([6]; athymic mice (FIG. 6)): markedly inhibited the growth
- apoptotic promoting activity in cancer cells [7]: apoptotic promoting activity
